Experiments:
HL-60 = details: cited from earlier work
colorectal cancer = details: 400 IU vitamin D3 with 1000 mg elemental calcium as calcium carbonate; average seven years follow-up; cited from earlier work
nonmelanoma skin cancers = test: oral hormone D3 treatment of nonmelanoma skin cancers; assay type: in vivo; details: twelve nonmelanoma skin cancers; oral intake, 466 IU daily, between 6 and 8 months
normal colonic mucosa = details: six months; vitamin D3 800 IU daily with calcium 2000 mg daily; cited from earlier work
cancer = details: cited from earlier work
[1] = system: cancer or major cardiovascular events; details: 2000 IU daily for 5 years, initially healthy adults; cited from earlier work

Row | Compound | cell differentiation (HL-60) | interaction between risk of colorectal cancer and supplementation (colorectal cancer) | outcome of treated nonmelanoma skin cancers (nonmelanoma skin cancers) | apoptosis in normal colonic mucosa (molecular markers) (normal colonic mucosa) | authors' conclusion on cancer prevention (cancer; high dose supplementation prescribed monthly) | participants with primary outcome of cancer (cancer; oral, initial bolus 200,000 IU then 100,000 IU monthly, up to 4 years, without calcium, placebo group 6.4%) | incidence of cancer or major cardiovascular events [1]
1 | C=C1/C(=C\C=C2/CCC[C@]3(C)[C@@H]([C@H](C)CCCC(C)(C)O)CC[C@@H]23)C[C@@H](O)C[C@@H]1O [1α,25-dihydroxyvitamin D3] | induces HL-60 differentiation into macrophage-monocyte like cells |  |  |  |  |  | 
2 | C=C1CC[C@H](O)C/C1=C/C=C1\CCC[C@]2(C)[C@@H]([C@H](C)CCCC(C)C)CC[C@@H]12 [hormone D3, cholecalciferol] |  | no significant interaction | all of them were resolved completely | may enhance apoptosis in normal colonic mucosa | may no prevent cancer | 6.5% | not reduce the incidence of cancer or major cardiovascular events

Source: patent US20220339167A1, “HORMONE D (VITAMIN D) AND ITS DERIVATIVES FOR THE TREATMENT AND PREVENTION OF CANCER” (Industrial Technologies & Biotechnologies, priority 2019, published 2022)
